Laboratory results from patent US5256548A, “Antiviral antibiotic BU-4344V” (Bristol-Myers Squibb Company, priority 1992, dated 1993).
≈ marks a conversion by molar mass, not a printed value.

Experiments:
[1] = tested on: Herpes Simplex Virus Type I; test: Plaque reduction assay, herpes simplex virus (Vero cells); type: cell-based, herpes simplex virus type 1
Vero cells [2] = details: dye-uptake assay, Vero cells without viral infection, 72 hours
Vero cells [3] = test: Plaque reduction assay, minimal toxic dose (Vero cells); type: cell-based
Protocol: In vitro antiviral activity of BU-4344V was assessed using the herpes simplex virus type 1 (KOS strain) - Vero cell and influenza virus type A (Victoria strain) - Madin Darby canine kidney (MDCK) cell systems by the dye-uptake assay method [Antiviral Research, 3, 223-234 (1986)]. The cell suspension (200 μl ), containing 2×10^4 cells, was inoculated to each well of 96-well microplates and cultured at 37° C. for 48-72 hours under humidified 5% CO2 -95% air environment. The growth medium in each well was replaced with 250 μl of fresh medium (Eagle MEM without serum) containing BU-4344V at various doses, and then 50 μl medium containing approximately 10×TCID50 of the viruses was added to each well. For cytotoxicity tests, the same set of wells, without the viruses, were prepared. After 72 hours of incubation, the degree of inhibition of the viral-induced cytopathic effect and the drug-induced cytotoxicity were determined. […] The antiviral activity of BU-4344V was also determined using a conventional plaque reduction assay method.

[4] = tested on: herpes simplex virus type 1 (KOS strain); details: 72 h
[5] = tested on: influenza virus type A (Victoria strain); test: Dye-uptake assay, inhibition of viral-induced cytopathic effect, influenza virus - MDCK cell system; type: cell-based; details: MDCK cells, 72 hours
Influenza Virus Type A = test: Plaque reduction assay, influenza virus (MDCK cells); type: cell-based

SMILES	ID50 [1]	TD50 (concentration exhibiting 50% cytotoxicity) (Vero cells [2])	MTD (Minimal Toxic Dose) (Vero cells [3])	ID50 (concentration showing 50% inhibition of the cytopathic effect) [4]	ID50 (concentration showing 50% inhibition of the cytopathic effect) [5]	ID50 (Influenza Virus Type A)
Nc1nc2c(ncn2COCCO)c(=O)[nH]1 [Acyclovir, reference compound]	0.25 µg/mL (≈ 1.11 µM)	> 100 µg/mL	> 100 µg/mL	0.2 µg/mL	–	–
NC(=O)c1ncn([C@@H]2O[C@H](CO)[C@@H](O)[C@H]2O)n1 [Ribavirin, reference compound]	–	–	–	–	10 µg/mL	3.8 µg/mL (≈ 15.6 µM)
